Experimental data from US4172148A, “Ruminant feeds containing trichloroethyl esters of essential amino acids” (E. R. Squibb & Sons, Inc., priority 1978, dated 1979).

Assays:
[1] = tested on: volatile fatty acid concentrations in the in vitro rumen fermentation; experiment: in vitro rumen fermentation, volatile fatty acids, alfalfa hay:concentrate 3:1 (Examples 3 and 12); parameters: species or system sheep; settings: 0.2 mg/ml; 6 h, 39° C.
Experimental: (§1) A one gram sample of substrate ground through a 1 mm screen is weighed into 100 ml. lipless beakers equipped with gas-release valves. The substrate consists of alfalfa hay containing approximately 16% protein and a concentrate containing ground corn 60.7%, alfalfa meal 17.5%, molasses 10.0%, soybean meal 5.3%, wheat bran 5.0%, trace mineralized salt 1.0%, limestone 0.5% and Vitamin D 300,000 I.U./ton, mixed in the proportion 3:1. The experimental composition is added to the substrate. 25 ml. of filtered rumen fluid obtained from fasted sheep maintained on feed the same as the above mentioned substrate and 25 ml. of McDougal's buffer solution serve as the inoculum. The buffer solution is as follows:
(§2) The fermentation mixture is flushed with carbon dioxide and the vessel is capped with a gas release valve. The fermentation vessel (beaker) is placed in a water bath and incubated at 39° C.±1° for six hours. The sample is mixed every hour by shaking the beaker.
(§3) At the end of the 6-hour fermentation period the sample is strained through 4 layers of cheesecloth into a sample bottle containing 1 ml. saturated solution of mercuric chloride. The sample is frozen immediately until analyzed for the volatile fatty acids (VFA) (mg/100 ml.). Prior to analysis, each sample is acidified with 30% phosphoric acid and then analyzed by gas chromatography using a column containing 5% nonylphenoxypolyoxyethylene ethanol plus 0.5% phosphoric acid on 100-120 mesh Gas Chrom S. The acids determined are acetic, propionic, butyric, isobutyric, valeric and isovaleric acids. Total VFA is considered as the addition of these acids. The ratio of acetic: propionic (A:P) is obtained by dividing the concentration of acetic acid by that of propionic acid.
The effect of various compounds alone on the volatile fatty acid concentrations was determined by the procedure of Example 3. […] A direct comparison between phenylalanine and phenylalanine trichloroethyl ester is provided.

[2] = tested on: volatile fatty acid concentrations in the in vitro rumen fermentation; experiment: in vitro rumen fermentation, volatile fatty acids, high concentrate substrate, alfalfa hay:concentrate 1:3 (Examples 4 and 7); parameters: species or system sheep; settings: for Acetic acid / Acetic:propionic / Butyric acid / Propionic acid / Total acids: hay:concentrate 1:3
Experimental: as §1, §2, §3
The procedure is described in Example 3. In this example, however, the substrate consisted of alfalfa hay and concentrate in the ratio of 1:3 and inoculum was obtained from sheep fed alfalfa and concentrate in the ratio of 1:3. The concentrate (Fit-N-Fresh) is commercially available from Agway, Inc. and contains grain products, plant protein products, processed grain by-products, cane molasses, minerals, vitamins and a preservative.
The 2,2,2-trichloroethyl ester of glycine was tested in vitro in a manner similar to that described in Example 4.

[3] = tested on: volatile fatty acid concentrations in fistulated sheep; experiment: volatile fatty acid concentrations in vivo in fistulated sheep, 227 g concentrate and 680 g alfalfa hay (Examples 5 and 8)
From the text: Mature sheep (wethers) fitted with permanent rumen fistulae were used to determine the effect of L-phenylalanine, 2,2,2-trichloroethyl ester on volatile fatty acid concentrations in vivo (3 wethers per treatment). The animals were individually penned and fed 227 g. of concentrate (described in Example 3) and 680 g. of alfalfa hay once daily. The test compound was admixed with the concentrate. The sheep were medicated for 7 days. Samples for analysis were obtained before (Day 0) and after treatment (Day 7) approximately 6 hours after feeding.

growing lambs = experiment: body weight gain and feed efficiency of growing lambs (Examples 9-11); assay type: in vivo, lambs (sheep); settings: 0.0044% (40 g/ton) in feed
Experimental: A test was conducted to determine if feeding L-phenylalanine, 2,2,2-trichloroethyl ester to growing lambs was effective in improving growth and feed efficiency. Wether and ewe lambs were divided into groups of 30 lambs each. They were acclimated to their pens for 2 weeks prior to treatment.
The feed supplied to the animals had the following composition
The test compound in an amount of 0.0055% (50 g/ton) was admixed with the above feed composition.
Body weights and feed consumption were recorded at 0, 2, 4 and 6 weeks. Feed efficiencies were calculated.
The test procedure of Example 9 was followed to test the growth effect and feed efficiency of glycine 2,2,2-trichloroethyl ester on growing lambs. The feed composition of Example 9 was used but contained glycine 2,2,2-trichloroethyl ester in an amount of 0.0044% (40 g/ton). There were 44 lambs in the control group receiving the feed composition without additive and 42 lambs receiving the feed composition containing the amino acid ester.
The test procedure of Example 9 was followed to test the growth effect and feed efficiency of L-phenylalanine 2,2,2-trichloroethyl ester on growing lambs. The feed composition of Example 9 was used but contained 0.0088% (80 g/ton) of this amino acid ester. There were 59 lambs in the control group fed the feed without additive and 58 lambs in the group fed the feed composition containing the test compound.

## N[C@@H](Cc1ccc(Cl)cc1)C(=O)O (racemic) [p-chlorophenylalanine, reference compound]
[1]
  Acetic acid: 91 % of control
  Acetic:propionic: 101 % of control
  Butyric acid: 92 % of control
  Propionic acid: 91 % of control
  Total acids: 91 % of control

## Br.NCC(=O)OCC(Cl)(Cl)Cl [2,2,2-trichloroethyl ester of glycine, aminoacetic acid 2,2,2-trichloroethyl ester, hydrobromide]
[2]; 0.2 mg/ml
  Acetic acid: 79 % of control
  Acetic:propionic: 64 % of control
  Butyric acid: 119 % of control
  Propionic acid: 123 % of control
  Total acids: 98 % of control
[2]; 0.4 mg/ml
  Acetic acid: 79 % of control
  Acetic:propionic: 64 % of control
  Butyric acid: 119 % of control
  Propionic acid: 123 % of control
  Total acids: 98 % of control
[2]; high concentrate substrate
  effect on acetic:propionic ratio (in words): decreasing the acetic:propionic ratio
  effect on propionic acid concentration (in words): effective in increasing propionic acid concentration
[3]; Example 8, 500 mg/head/day, treatment, pre-treatment 3.36, control treatment 3.38
  Acetic:propionic ratio: 2.86
[3]; Example 8, 500 mg/head/day, treatment, pre-treatment 6.1, control treatment 4.2
  Other acids (%): 6.6%
[3]; Example 8, 500 mg/head/day, treatment, pre-treatment 15.1, control treatment 14.6
  Butyric acid (%): 17.9%
[3]; Example 8, 500 mg/head/day, treatment, pre-treatment 18.1, control treatment 18.6
  Propionic acid (%): 19.6%
[3]; Example 8, 500 mg/head/day, treatment, pre-treatment 60.8, control treatment 62.7
  Acetic acid (%): 56.0%
[3]; Example 8, 500 mg/head/day, treatment, pre-treatment 715, control treatment 678
  Total acid: 731 mg/100 ml
[3]; fistulated sheep, 7 days
  effect on acetic:propionic ratio (in words): decreasing the acetic:propionic ratio
  effect on proportion of propionic acid (in words): effective in increasing the proportion of propionic acid
Growing lambs; 0-2 wks, control 2.32
  Weight gain: 2.31 kg
Growing lambs; 0-4 wks, control 5.09
  Weight gain: 5.13 kg
Growing lambs; 0-6 wks, control 0.148
  Feed efficiency: 0.154 gain/feed
Growing lambs; 0-6 wks, control 7.18
  Weight gain: 7.37 kg

## N[C@@H](Cc1ccccc1)C(=O)O [L-phenylalanine, reference compound]
[1]
  Acetic acid: 95 % of control
  Acetic:propionic: 100 % of control
  Butyric acid: 97 % of control
  Propionic acid: 94 % of control
  Total acids: 96 % of control

## O=CC(Cl)(Cl)Cl [choral, reference compound]
[1]
  Acetic acid: 88 % of control
  Acetic:propionic: 80 % of control
  Butyric acid: 110 % of control
  Propionic acid: 110 % of control
  Total acids: 96 % of control
